Test [1] relates to constitutive active colorectal cancer cell (CRC) Wnt pathway. Nature of the test: HCT116 Super TopFlash cellular reporter assay (constitutive active Wnt pathway). Particulars: HCT116 TOP reporter cells, luciferase expression, 36 hours incubation, 50 μM to 15 nM. Format: cell-based. Put shortly:
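HCT116 cells (β-catenin ΔS45) stably carrying Super TopFlash, with a parallel FOP-control line, were plated 24 h ahead. They were exposed 36 h at 37 °C, 5% CO2 to compound from a 50 μM–15 nM, 3.16-fold pre-dilution series in CAFTY buffer (pH 7.4, 2 mM Ca2+, 0.01% BSA). Wnt signalling was read as luciferase luminescence.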
For orientation: A reporter such as luciferase makes a cellular process visible.

The test system of test [2] is HCT116 FOP control reporter cell line. Nature of the test: HCT116 FOP control vector reporter assay (non-functional TCF elements). The format is cell-based. The settings on record: HCT116 FOP control reporter cells, luciferase expression, 36 hours incubation, 50 μM to 15 nM, read-out: HCT116 FOPFlash IC50. Put shortly:
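Stable HCT116 line carrying the non-functional FOP luciferase construct, 10000 cells/well plated 24 hrs before. Compounds 50 μM to 15 nM (3.16-fold steps) in CAFTY buffer pH 7.4 with 2 mM Ca2+, 36 hours at 37° C; luciferase luminescence read.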

Here are results for 29 compounds from US20160052898A1, “NOVEL COMPOUNDS” (BAYER PHARMA AKTIENGESELLSCHAFT, priority 2013, published 2016).

Like-named read-outs stand apart in the source and are kept apart here.

On to `COCCNCC(=O)Nc1cc(NC(=O)c2ccc(-c3ccccc3)cc2)ccc1OC(F)(F)F` [Example 130, N-[3-{[N-(2-methoxyethyl)glycyl]amino} -4-(trifluoromethoxy)phenyl] biphenyl-4-carboxamide], for which the IC50 came to 248 nM in test [1] (Homo sapiens, HCT-116, 36 h) and 28 µM in test [2] (Homo sapiens, HCT-116, 36 h).
As for `COc1ccc(C(=O)Nc2ccc(-c3ccccc3)cc2)cc1NC(=O)C1(N2CCN(C)CC2)CC1` [Example 133, N-(biphenyl-4-yl)-4-methoxy-3-({[1-(4-methylpiperazin-1-yl)cyclopropyl]carbonyl}amino)benzamide], the IC50 amounted to 362 nM in test [1] and 30 µM in test [2].
Turning to `COc1c(F)cc(C(=O)Nc2ccc(-c3ccccc3)cc2)cc1NC(=O)CN1CCOCC1` [Example 134, N-(biphenyl-4-yl)-3-fluoro-4-methoxy-5-[(morpholin-4-ylacetyl)amino]benzamide], the IC50 was 398 nM in test [1] (Homo sapiens, HCT-116, 36 h) and not below 50 µM in test [2] (Homo sapiens, HCT-116, 36 h).
The like results for `NC(C(=O)Nc1cc(NC(=O)c2ccc(-c3ccccc3)cc2)ccc1OC(F)(F)F)C(F)(F)F` (stereo not shown) [Example 135, N-{3-[(333-trifluoroalanyl)amino]-4-[trifluoromethoxy)phenyl) biphenyl-4-carboxamide] were, in that order, 592 nM and not below 50 µM.
`COc1c(Cl)cc(C(=O)Nc2ccc(-c3ccccc3)cc2)cc1NC(=O)CN1CCOCC1` [Example 136, N-(biphenyl-4-yl)-3-chloro-4-methoxy-5-[(morpholin-4-ylacetyl]amino]benzamide]: the IC50 in test [1] (Homo sapiens, HCT-116, 36 h) is 750 nM; in test [2] (Homo sapiens, HCT-116, 36 h) it was 38.5 µM.
On to `COc1ccc(C(=O)Nc2ccc(-c3ccccc3)cc2)cc1NC(=O)[C@@H](C(C)C)N1CCOCC1` [Example 137, N-(biphenyl-4-yl)-4-methoxy-3-{[(2R)-3-methyl-2-(morpholin-4-yl)butanoyl]amino} benzamide], for which the IC50 came to 925 nM in test [1] (Homo sapiens, HCT-116, 36 h) and 33 µM in test [2] (Homo sapiens, HCT-116, 36 h).
For the compound `COc1ccc(NC(=O)c2ccc(-c3ccccc3)cc2)cc1NC(=O)Cc1ccc(F)cc1` [Example 138, N-(3-{[(4-fluorophenyl)acetyl]amino}-4-methoxyphenyl)biphenyl-4-carboxamide], the IC50 is 1200 nM in test [1] (Homo sapiens, HCT-116, 36 h) and not below 50 µM in test [2] (Homo sapiens, HCT-116, 36 h).
The like results for `CC(CN1CCOCC1)C(=O)Nc1cc(C(=O)Nc2ccc(-c3ccccc3)cc2)ccc1C(F)(F)F` (stereo not shown) [Example 139, N-(biphenyl-4-yl)-3-{[2-methyl-3-(morpholin-4-yl)propanoyl]amino}-4-(trifluoromethyl)benzamide] were, in that order, 1430 nM and not below 50 µM.
`O=C(CNCCO)Nc1cc(NC(=O)c2ccc(-c3ccccc3)cc2)ccc1OC(F)(F)F` [Example 140, N-[3-{[N-(2-hydroxyethyl)glycyl]amino}-4-(trifluoromethoxy)phenyl] biphenyl-4-carboxamide]: the IC50 in test [1] (Homo sapiens, HCT-116, 36 h) is 1700 nM; in test [2] (Homo sapiens, HCT-116, 36 h), 25 µM.
The like results for `COc1ccc(NC(=O)c2ccc(-c3ccccc3)cc2)cc1NC(=O)CCN1CCOCC1` [Example 141, N-(4-methoxy-3-{[3-(morpholin-4-yl)propanoyl]amino}phenyl) biphenyl-4-carboxamide] were, in that order, 2500 nM and not below 50 µM.
As for `COc1ccc(NC(=O)c2ccc(-c3ccccc3)cc2)cc1NC(=O)Cc1cccc(F)c1` [Example 142, N-(3-{[(3-fluorophenyl)acetyl]amino}-4-methoxyphenyl)biphenyl-4-carboxamide], the IC50 is 2850 nM in test [1] (Homo sapiens, HCT-116, 36 h) and not below 50 µM in test [2] (Homo sapiens, HCT-116, 36 h).
For `COc1cccc(CC(=O)Nc2cc(NC(=O)c3ccc(-c4ccccc4)cc3)ccc2OC)c1` [Example 143, N-(4-methoxy-3-{[(3-methoxyphenyl}acetyl]amino}phenyl)biphenyl-4-carboxamide], in that order: 3300 nM and not below 50 µM.
The like results for `COc1ccc(CC(=O)Nc2cc(NC(=O)c3ccc(-c4ccccc4)cc3)ccc2OC)cc1` [Example 144, N-(4-methoxy-3-{[(4-methoxyphenyl)acetyl]amino}phenyl)biphenyl-4-carboxamide] were, in that order, 3850 nM and not below 50 µM.
With `COc1ccc(NC(=O)c2ccc(-c3ccccc3)cc2)cc1NC(=O)CC1CCCCC1` [Example 145, N-{3-((cyclohexylacetyl)amino]-4-methoxyphenyl}biphenyl-4-carboxamide], the IC50 in test [1] (Homo sapiens, HCT-116, 36 h) was 4800 nM; in test [2] (Homo sapiens, HCT-116, 36 h) it was not below 50 µM.
For the compound `COC(=O)c1ccc(C(=O)Nc2ccc(-c3ccccc3)cc2)cc1NC(=O)C1(N2CCOCC2)CC1` [Example 147, methyl 4-(biphenyl-4-ylcarbamoyl)-2-({[1-(morpholin-4-yl)cyclopropyl]carbonyl}amino)benzoate], the IC50 in test [1] (Homo sapiens, HCT-116, 36 h) is 10.2 nM; in test [2] (Homo sapiens, HCT-116, 36 h), not below 50 µM.
Regarding `O=C(Nc1ccc(OC(F)(F)F)c(NC(=O)C2(N3CCOCC3)CC2)c1)c1ccc(-c2ccccc2)cc1` [Example 148, N-[3-({[1-(morpholin-4-yl)cyclopropyl]carbonyl}amino)-4-(trifluoromethoxy)phenyl] biphenyl-4-carboxamide], the concentration for half-maximal inhibition (IC50) in test [1] (Homo sapiens, HCT-116, 36 h) is 12.2 nM; in test [2] (Homo sapiens, HCT-116, 36 h), not below 50 µM.
Turning to `COCc1ccc(C(=O)Nc2ccc(-c3ccccc3)cc2)cc1NC(=O)C1(N2CCN(C3CC3)CC2)CC1` [Example 149, N-(biphenyl-4-yl)-3-({[1-(4-cyclopropylpiperazin-1-yl)cyclopropyl]carbonyl}amino)-4-(methoxymethyl)benzamide], the IC50 in test [1] (Homo sapiens, HCT-116, 36 h) is 13.3 nM; in test [2] (Homo sapiens, HCT-116, 36 h), 15 µM.
For `COc1ccc(NC(=O)c2ccc(-c3ccccc3)cc2)cc1NC(=O)C1(N2CCOCC2)CC1` [Example 150, N-[4-methoxy-3-({[1-(morpholin-4-yl)cyclopropyl]carbonyl}amino)phenyl]biphenyl-4-carboxamide], the IC50 is 26.2 nM in test [1] (Homo sapiens, HCT-116, 36 h) and not below 50 µM in test [2] (Homo sapiens, HCT-116, 36 h).
Take `O=C(Nc1ccc(-c2ccccc2)cc1)c1ccc(F)c(NC(=O)C2(N3CCOCC3)CC2)c1` [Example 151, N-(biphenyl-4-yl)-4-fluoro-3-({[1-(morpholin-4-yl)cyclopropyl]carbonyl}amino)benzamide]: the IC50 in test [1] (Homo sapiens, HCT-116, 36 h) was 28.2 nM; in test [2] (Homo sapiens, HCT-116, 36 h), not below 50 µM.
For `O=C(Nc1ccc(-c2ccccc2)cc1)c1ccc(Br)c(NC(=O)C2(N3CCOCC3)CC2)c1` [Example 152, N-(biphenyl-4-yl)-4-bromo-3-({[1-(morpholin-4-yl)cyclopropyl]carbonyl}amino)benzamide], the IC50 in test [1] (Homo sapiens, HCT-116, 36 h) was found to be 33.8 nM; in test [2] (Homo sapiens, HCT-116, 36 h), 29 µM.
With `COc1ccc(C(=O)Nc2ccc(-c3ccccc3)cc2)cc1NC(=O)[C@@H](C)N1CCOCC1` [Example 153, N-(biphenyl-4-yl)-4-methoxy-3-{[(2R)-2-(morpholin-4-yl)propanoyl]amino} benzamide], the IC50 was 44 nM in test [1] (Homo sapiens, HCT-116, 36 h) and not below 50 µM in test [2] (Homo sapiens, HCT-116, 36 h).
The like results for `COCc1ccc(C(=O)Nc2ccc(-c3ccccc3)cc2)cc1NC(=O)CN1CC2CCC(C1)O2` [Example 154, N-(biphenyl-4-yl)-4-(methoxymethyl)-3-[(8-oxa-3-azabicyclo[3.2.1]oct-3-ylacetyl)amino]benzamide] were, in that order, 47.6 nM and 42.5 µM.
The like results for `CC(C)NC(=O)c1ccc(C(=O)Nc2ccc(-c3ccccc3)cc2)cc1NC(=O)CN1CCOCC1` [Example 155, N^4-(biphenyl-4-yl)-2-[(morpholin-4-ylacetyl)amino]-N^1-(propan-2-yl)benzene-1,4-dicarboxamide] were, in that order, 49.8 nM and not below 50 µM.
Take `COc1ccc(C(=O)Nc2ccc(-c3ccccc3)cc2)cc1NC(=O)C1(N2CCN(C3CC3)CC2)CC1` [Example 156, N-(biphenyl-4-yl)-3-({[1-(4-cyclopropylpiperazin-1-yl)cyclopropyl)carbonyl}amino)-4-methoxybenzamide]: the IC50 in test [1] (Homo sapiens, HCT-116, 36 h) was 52.7 nM; in test [2] (Homo sapiens, HCT-116, 36 h) it was not below 50 µM.
Consider `COCc1ccc(C(=O)Nc2ccc(-c3ccccc3)cc2)cc1NC(=O)C(C)N1CCOCC1` (stereo not shown) [Example 157, N-(biphenyl-4-yl)-4-(methoxymethyl)-3-{[2-(morpholin-4-yl)propanoyl)amino} benzamide], for which the IC50 in test [1] (Homo sapiens, HCT-116, 36 h) was 60.5 nM; in test [2] (Homo sapiens, HCT-116, 36 h), 43.5 µM.
As for `COCc1ccc(C(=O)Nc2ccc(-c3ccccc3)cc2)cc1NC(=O)C1(N(C)C)CC1` [Example 158], the IC50 was 63 nM in test [1] (Homo sapiens, HCT-116, 36 h) and not below 50 µM in test [2] (Homo sapiens, HCT-116, 36 h).
For `Cc1ccc(C(=O)Nc2ccc(-c3ccccc3)cc2)cc1NC(=O)C1(N2CCOCC2)CC1` [Example 159, N-(biphenyl-4-yl)-4-methyl-3-({[1-(morpholin-4-yl)cyclopropyl)carbonyl}amino)benzamide], the IC50 in test [1] (Homo sapiens, HCT-116, 36 h) is 70.5 nM; in test [2] (Homo sapiens, HCT-116, 36 h), not below 50 µM.
For `COCCCOCc1ccc(C(=O)Nc2ccc(-c3ccccc3)cc2)cc1NC(=O)C(C)N1CCOCC1` (stereo not shown) [Example 160, N-(biphenyl-4-yl)-4-[(3-methoxypropoxy)methyl]-3-([2-(morpholin-4-yl)propanoyl]amino} benzamide], the IC50 in test [1] (Homo sapiens, HCT-116, 36 h) came out at 79.5 nM; in test [2] (Homo sapiens, HCT-116, 36 h), 30 µM.
With `CC(C(=O)Nc1cc(NC(=O)c2ccc(-c3ccccc3)cc2)ccc1C(F)(F)F)N1CCOCC1` (stereo not shown) [Example 161, N-[3-{[2-(morpholin-4-yl)propanoyl]amino}-4-(trifluoromethyl)phenyl] biphenyl-4-carboxamide], the IC50 in test [1] (Homo sapiens, HCT-116, 36 h) is 98 nM; in test [2] (Homo sapiens, HCT-116, 36 h), not below 50 µM.

For orientation: IC50 means the midpoint of a concentration-inhibition curve.
